Data as given in patent US8541442B2, “Indole derivatives as anticancer agents” (Janssen Pharmaceutica N.V., priority 2009, dated 2013).

Columns and labels:
p53 in A2780 cells = experiment: p53 ELISA (preservation of p53 in A2780 cells); format: cell-based, human; details: 16 hours treatment; for minimal effective concentration: Homo sapiens, A2780, 16 h, read-out: p53-elisa LAD (lowest dose giving at least 140% of the value for p53 present in the control)
Protocol: The capacity of the present compounds to preserve p53 in A2780 cells was measured with the p53 enzyme linked immunosorbent assay. The p53 assay is a “sandwich” enzyme immunoassay employing two polyclonal antibodies. A polyclonal antibody, specific for the p53 protein, has been immobilized onto the surface of the plastic wells. Any p53 present in the sample to be assayed will bind to the capture antibody. The biotinylated detector polyclonal antibody also recognizes p53 protein, and will bind to any p53, which has been retained by the capture antibody. The detector antibody, in turn, is bond by horseradish peroxidase-conjugated streptavidin. The horseradish peroxidase catalyses the conversion of the chromogenic substrate o-phenylene diamine, the intensity of which is proportional to the amount of p53 protein bond to the plate. The colored reaction product is quantified using a spectrophotometer. Quantitation is achieved by the construction of a standard curve using known concentrations of purified recombinant HIS tagged p53 protein (see example C.1.).
A2780 cells (ATCC) were cultivated in RPMI 1640 supplemented with 10% fetal calf serum (FCS), 2 mM L-glutamine and gentamycin at 37° C. in a humidified incubator with 5% CO2.
A2780 cells were seeded at 20.000 cells per well in a 96 well plate, cultured for 24 hours and treated with compound for 16 hours at 37° C. in a humidified incubator. After incubation, the cells were washed once with phosphate-buffered saline and 30 μl, per well, low salt RIPA buffer (20 mM tris, pH7.0, 0.5 mM EDTA, 1% Nonidet P40, 0.5% DOC, 0.05% SDS, 1 mM PMSF, 1 μg/ml aprotinin and 0.5 μ/ml leupeptin) was added. Plates were placed on ice for 30 minutes to complete the lysis. p53 protein was detected in de lysates by using the sandwich ELISA, described below.
High binding polystyrene EIA/RIA 96 well plates (Costar 9018) were coated with the capture antibody pAb1801 (Abcam ab28-100) at a concentration of 1 μg/ml in coating buffer (0.1 M NaHCO3 pH8.2), 50 μl per well. The antibody was allowed to adhere overnight at 4° C. Coated plates were washed once with phosphate-buffered saline (PBS)/0.05% Tween 20 and 300 μl of blocking buffer (PBS, 1% bovine serum albumins (BSA)) was added, for an incubation period of 2 hours at room temperature. Dilutions of purified recombinant HIS tagged p53 protein, ranging from 3-200 ng/ml, were made in blocking buffer and used as standards.
Plates were washed twice with PBS/0.05% Tween 20 and blocking buffer or standards were added at 80 μl/well. To the standards, 20 μl of lysis buffer was added. The samples were added to the other wells at 20 μl lysate/well. After an overnight incubation at 4° C., plates were washed twice with PBS/0.05% Tween 20. Aliquots of 100 μl secondary polyclonal antibody p53(FL-393) (Tebubio, sc-6243) at a concentration of 1 μg/ml in blocking buffer were added to each well and allowed to adhere for 2 hours at room temperature. Plates were washed three times with PBS/0.05% Tween 20. Detection antibody anti-rabbit HRP (sc-2004, Tebubio) at 0.04 μg/ml in PBS/1% BSA was added and incubated for 1 hour at room temperature. Plates were washed three times with PBS/0.05% Tween 20 and 100 μl of substrate buffer was added (substrate buffer was prepared shortly before use by adding 1 tablet of 10 mg o-phenylene diamine (OPD) from Sigma and 125 μl 3% H2O2 to 25 ml OPD buffer: 35 mM citric acid, 66 mM Na2HPO4, pH5.6). After 5 to 10 minutes, colour reaction was stopped by adding 50 μl stop buffer (1 M H2SO4) per well. The absorbance at dual wavelengths of 490/655 nm was measured using a Biorad micro plate reader and the results were then analyzed.
For each experiment, controls (containing no drug) and a blank incubation (containing no cells or drugs) were run in parallel. The blank value was subtracted from all control and sample values. For each sample, the value of p53 (in absorbance units) was expressed as the percentage of the value for p53 present in the control. […]

Male NMRI mice = experiment: Ro-4-1284 antagonism in mice; format: in vivo
Protocol: The test is a modification of a procedure described by Colpaert et al. (1975).^3 Male NMRI mice (22±3 g) were housed in macrolon observation cages (L×W×H: 11×12×17 cm; n=3 per cage). At the start of the experiments immediately before test compound administration, the initial body temperature of the mice was measured with a precision of 0.1° C. by inserting the thermo-sensitive probe (1.0 mm diameter) of an electric thermometer (Comark) to a constant depth of 3 cm into the esophagus until a stable reading was obtained. The right eye pupil diameter was measured with a graduated microscope and expressed in 1/24 mm units. Fifteen min after test compound administration, the mice were challenged with Ro-4-1284 (10 mg/kg, s.c.). Ro-4-1284 is a reserpine-like vesicular monoamine transport (VMAT-2) inhibitor, which rapidly depletes secretory vesicles.^3,4 Fifteen, 30 and 60 min after challenge, the mice were scored for palpebral opening (0, 1, 2, 3, 4, 5) and locomotor activity (−1, 0, 1, 2, 3). At the 60-min interval, immediately after the scoring of overt behavior, the right eye pupil diameter and the esophageal temperature were measured again. Abnormal phenomena such as intensive sniffing, chewing, rearing, hyperemia, piloerection, salivation, tremors, convulsions and death were noted (the latter phenomena were also noted when occurring before Ro-4-1284 administration). Criteria for drug-induced effects: reversal of ptosis: palpebral opening score >1 at 15, 30 or 60 min (2.7, 0.5 and 0% false positive controls, respectively; n>350); induction of prostration: score −1 for locomotion at 15, 30 or 60 min (never observed in controls); reversal of hypomotility: score >0 for locomotion at 15, 30 and 60 min (2.2, 0.8 and 0% false positive controls, respectively); reversal of miosis: pupil diameter >5 units at 60 min (0.8% false positives); potentiation of hypothermia: temperature decrease (over the 1-h time interval)>9.0° C. (1.4% false positives); reversal of hypothermia: temperature decrease <3.0° C. (1.8% false positives).
According to the standard procedure, R0-4-1284 is injected 15 min following subcutaneous or oral administration and observations start 15 min later. Doses are initially given to 3 animals. When at least 2 out of the 3 animals show activity for at least one of the observations, the compound is considered active.

[1] = 80 mg/kg oral administration, 3 animals

SMILES	p53-elisa LAD (lowest dose giving at least 140% of the value for p53 present in the control) (p53 in A2780 cells) [µM]	activity on reversal of hypomotility (Male NMRI mice; [1])	activity on reversal of miosis (Male NMRI mice; [1])	activity on reversal of ptosis (Male NMRI mice; [1])	minimal effective concentration (p53 in A2780 cells) [µM]	other results
Cc1cc(Nc2ccnc3c2CCC3O)ccc1NCCc1c[nH]c2c(C(C)O)cccc12 (single isomer, unassigned) [Compound 12]	0.10					
Cc1cc(Nc2ccnc3c2CCC3O)ccc1NCCc1c[nH]c2c(C(C)O)cccc12 (single isomer, unassigned) [Compound 15]	0.10					
Cc1cc(Nc2ccnc3c2CCC3O)ccc1NCCc1c[nH]c2c(CCO)cccc12 (single isomer, unassigned) [Compound 23]	3.00					
COC1CCc2c(Nc3ccc(NCCc4c[nH]c5c(C(C)(C)O)cccc45)cc3)ccnc21 (single isomer, unassigned) [Compound 24]	0.03	did not show activity	did not show activity	did not show activity		
COC1CCc2c(Nc3ccc(NCCc4c[nH]c5c(C(C)(C)O)cccc45)cc3)ccnc21 (single isomer, unassigned) [Compound 25]	0.10	did not show activity	did not show activity	did not show activity		
Cc1cc(Nc2ccnc3c2CCC3(C)O)ccc1NCCc1c[nH]c2c(C(C)(C)O)cccc12 (single isomer, unassigned) [Compound 26]	0.10	did not show activity	did not show activity	did not show activity		
Cc1cc(Nc2ccnc3c2CCC3(C)O)ccc1NCCc1c[nH]c2c(C(C)(C)O)cccc12 (single isomer, unassigned) [Compound 27]		did not show activity	did not show activity	did not show activity	0.1	
COC1CCc2c(Nc3ccc(NCCc4c[nH]c5c(C(C)(C)O)cccc45)c(C)c3)ccnc21 (single isomer, unassigned) [Compound 28]	0.10	did not show activity	did not show activity	did not show activity		
COC1CCc2c(Nc3ccc(NCCc4c[nH]c5c(C(C)(C)O)cccc45)c(C)c3)ccnc21 (single isomer, unassigned) [Compound 29]	0.03	did not show activity	did not show activity	did not show activity		
CC(C)(O)c1cccc2c(CCNc3ccc(Nc4ccnc5c4CCC5(C)O)cc3)c[nH]c12 (single isomer, unassigned) [Compound 30]	0.10	did not show activity	did not show activity	did not show activity		
CC(C)(O)c1cccc2c(CCNc3ccc(Nc4ccnc5c4CCC5(C)O)cc3)c[nH]c12 (single isomer, unassigned) [Compound 31]	0.10	did not show activity	did not show activity	did not show activity		
Cc1cc(Nc2ccnc3c2CCC3(C)O)ccc1NCCc1c[nH]c2c(C(C)(C)O)cccc12 (stereo not shown) [Compound 1]		did not show activity	did not show activity	did not show activity	0.1	
Cc1cc(Nc2ccncc2)ccc1NCCc1c[nH]c2c(C(C)(C)O)cccc12 [Compound 2]					0.1	
Cc1cc(Nc2ccnc3c2CCC3=O)ccc1NCCc1c[nH]c2c(C(C)O)cccc12 (stereo not shown) [Compound 4]					0.1	activity on reversal of hypomotility (Male NMRI mice; 40 mg/kg): did not show activity; activity on reversal of miosis (Male NMRI mice; 40 mg/kg): did not show activity; activity on reversal of ptosis (Male NMRI mice; 40 mg/kg): did not show activity
Cc1cc(Nc2ccnc(CO)c2)ccc1NCCc1c[nH]c2c(C(C)O)cccc12 (stereo not shown) [Compound 5]					0.1	
OCc1cccc2c(CCNc3ccc(Nc4ccnc5c4CCC5O)cc3)c[nH]c12 (stereo not shown) [Compound 6]					1	
Cc1cc(Nc2ccnc3c2CCC3O)ccc1NCCc1c[nH]c2c(CCC(C)O)cccc12 (stereo not shown) [Compound 9]					1	
Cc1cc(Nc2ccnc3c2CCC3(C)O)ccc1NCCc1c[nH]c2c(C(C)O)cccc12 (stereo not shown) [Compound 10]	1.0					
COc1cc(Nc2ccnc3c2CCC3O)ccc1NCCc1c[nH]c2c(C(C)(C)O)cccc12 (stereo not shown) [Compound 11]	0.30					
COC1CCc2c(Nc3ccc(NCCc4c[nH]c5c(C(C)O)cccc45)c(C)c3)ccnc21 (stereo not shown) [Compound 16]	0.30					
Cc1cc(Nc2ccnc(CO)c2)ccc1NCCc1c[nH]c2c(C(C)(C)O)cccc12 [Compound 19]	0.10					
Cc1cc(Nc2ccncc2)ccc1NCCc1c[nH]c2c(C(O)C(C)C)cccc12 (stereo not shown) [Compound 22]	3.00					
